From ChEMBL document CHEMBL2150926 (J Med Chem, 2011)
Converted amounts (≈) assume the structure as drawn.

Legend:
[1] = molecular target: Protein kinase C alpha type (Homo sapiens, UniProt P17252); assay: Inhibition of PKCalpha by scintillation proximity assay
[2] = molecular target: Protein kinase C beta type (Homo sapiens, UniProt P05771); assay: Inhibition of PKCbeta-1 by scintillation proximity assay
[3] = molecular target: Protein kinase C delta type (Homo sapiens, UniProt Q05655); assay: Inhibition of PKCdelta by scintillation proximity assay
[4] = molecular target: T1, Protein kinase C epsilon type (Homo sapiens, UniProt Q02156); assay: Inhibition of PKCepsilon by scintillation proximity assay
T1 sequence (Q02156 whole entry): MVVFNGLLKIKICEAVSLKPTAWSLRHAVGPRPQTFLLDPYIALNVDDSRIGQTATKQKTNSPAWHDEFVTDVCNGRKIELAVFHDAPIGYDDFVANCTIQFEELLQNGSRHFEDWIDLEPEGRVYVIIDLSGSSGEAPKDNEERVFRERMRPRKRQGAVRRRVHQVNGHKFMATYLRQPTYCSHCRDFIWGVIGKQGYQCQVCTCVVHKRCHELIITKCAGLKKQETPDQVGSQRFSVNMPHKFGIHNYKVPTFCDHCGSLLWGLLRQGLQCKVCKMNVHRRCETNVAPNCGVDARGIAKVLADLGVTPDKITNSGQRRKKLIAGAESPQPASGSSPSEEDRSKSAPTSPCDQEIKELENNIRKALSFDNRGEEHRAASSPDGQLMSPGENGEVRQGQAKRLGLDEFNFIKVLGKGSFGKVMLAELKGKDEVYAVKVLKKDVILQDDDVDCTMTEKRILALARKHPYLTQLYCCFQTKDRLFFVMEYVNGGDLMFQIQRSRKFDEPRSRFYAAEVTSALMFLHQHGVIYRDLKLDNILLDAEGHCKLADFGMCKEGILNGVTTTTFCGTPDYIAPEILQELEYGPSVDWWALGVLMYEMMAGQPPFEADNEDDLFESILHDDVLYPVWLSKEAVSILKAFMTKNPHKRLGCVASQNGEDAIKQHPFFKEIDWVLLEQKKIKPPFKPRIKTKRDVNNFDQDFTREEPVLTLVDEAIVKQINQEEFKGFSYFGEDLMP

[5] = molecular target: Protein kinase C eta type (Homo sapiens, UniProt P24723); assay: Inhibition of PKCeta by scintillation proximity assay
[6] = molecular target: Protein kinase C theta type (Homo sapiens, UniProt Q04759); assay: Inhibition of PKCtheta by scintillation proximity assay
[7] = Immunosuppressive activity in mouse lymphocytes assessed as alloantigen-induced T cell proliferation by mixed lymphocyte reaction assay; type: functional, cell-based
[8] = Immunosuppressive activity in human lymphocytes assessed as alloantigen-induced T cell proliferation by mixed lymphocyte reaction assay; type: functional, cell-based
[9] = Octanol-water partition coefficient, log P of the compound; type: physicochemical
[10] = Lipophilicity, log D of the compound at pH 6.8; type: physicochemical; settings: buffer
[11] = Intrinsic solubility of the compound at pH 6.8; type: physicochemical; settings: buffer, read-out: Intrinsic_solubility
[12] = Solubility of the compound in simulated gastric fluid at pH 2.0; type: physicochemical
[13] = Solubility of the compound in fasted state simulated intestinal fluid at pH 6.5; type: physicochemical
[14] = Solubility of the compound in fed state simulated intestinal fluid at pH 5.8; type: physicochemical
[15] = Apparent permeability in human Caco2 cells; type: ADME, cell-based; settings: Caco-2
Mus musculus [16] = assay: Dose normalized AUC (0 to infinity) in Balb/c mouse at 5 mg/kg, iv; type: ADME, organism-based; set-up: dose 5 mg/kg, route intravenous; settings: in vivo
Rattus norvegicus [17] = assay: Dose normalized AUC (0 to infinity) in OFA rat at 5 mg/kg, iv; type: ADME, organism-based; set-up: dose 5 mg/kg, route intravenous; settings: in vivo
Cynomolgus monkey [18] = assay: Dose normalized AUC (0 to infinity) in cynomolgus monkey at 5 mg/kg, iv; type: ADME, organism-based, Macaca fascicularis; set-up: dose 5 mg/kg, route intravenous; settings: in vivo
[19] = Total plasma clearance in Balb/c mouse at 5 mg/kg, iv; type: ADME, organism-based; set-up: dose 5 mg/kg, route intravenous
[20] = Total plasma clearance in cynomolgus monkey at 5 mg/kg, iv; type: ADME, organism-based, Macaca fascicularis; set-up: dose 5 mg/kg, route intravenous
[21] = Volume of distribution at steady state in Balb/c mouse at 5 mg/kg, iv; type: ADME, organism-based; set-up: dose 5 mg/kg, route intravenous; settings: in vivo, read-out: Vdss
[22] = Volume of distribution at steady state in cynomolgus monkey at 5 mg/kg, iv; type: ADME, organism-based, Macaca fascicularis; set-up: dose 5 mg/kg, route intravenous; settings: in vivo, read-out: Vdss
[23] = Elimination half life in Balb/c mouse at 5 mg/kg, iv; type: ADME, organism-based; set-up: dose 5 mg/kg, route intravenous; settings: in vivo, read-out: beta t1/2 (converted)
[24] = Elimination half life in cynomolgus monkey at 5 mg/kg, iv; type: ADME, organism-based, Macaca fascicularis; set-up: dose 5 mg/kg, route intravenous; settings: in vivo, read-out: beta t1/2 (converted)
Mus musculus [25] = assay: Dose normalized AUC (0 to infinity) in Balb/c mouse at 30 mg/kg, po; type: ADME, organism-based; set-up: dose 30 mg/kg, route oral; settings: in vivo
Rattus norvegicus [26] = assay: Dose normalized AUC (0 to infinity) in OFA rat 20 mg/kg, po; type: ADME, organism-based; set-up: dose 20 mg/kg, route oral; settings: in vivo
Cynomolgus monkey [27] = assay: Dose normalized AUC (0 to infinity) in cynomolgus monkey at 20 mg/kg, po; type: ADME, organism-based, Macaca fascicularis; set-up: dose 20 mg/kg, route oral; settings: in vivo
[28] = Tmax in Balb/c mouse at 30 mg/kg, po; type: ADME, organism-based; set-up: dose 30 mg/kg, route oral; settings: in vivo
[29] = Tmax in cynomolgus monkey at 20 mg/kg, po; type: ADME, organism-based, Macaca fascicularis; set-up: dose 20 mg/kg, route oral; settings: in vivo
[30] = Oral bioavailability in Balb/c mouse at 30 mg/kg; type: ADME, organism-based; settings: in vivo
[31] = Oral bioavailability in cynomolgus monkey at 20 mg/kg; type: ADME, organism-based, Macaca fascicularis; settings: in vivo
[32] = Intrinsic clearance in Balb/c mouse liver microsomes at 30 mg/kg, po; type: ADME, Microsome; set-up: dose 30 mg/kg, route oral; settings: read-out: CLH
[33] = Intrinsic clearance in OFA rat liver microsomes at 20 mg/kg, po; type: ADME, Microsome; set-up: dose 20 mg/kg, route oral; settings: read-out: CLH
[34] = Intrinsic clearance in cynomolgus monkey liver microsomes at 20 mg/kg, po; type: ADME, Macaca fascicularis, Microsome; set-up: dose 20 mg/kg, route oral; settings: read-out: CLH
[35] = Fraction unbound in OFA rat plasma at 20 mg/kg, po; type: ADME, organism-based; set-up: dose 20 mg/kg, route oral
[36] = Fraction unbound in cynomolgus monkey plasma at 20 mg/kg, po; type: ADME, organism-based, Macaca fascicularis; set-up: dose 20 mg/kg, route oral
[37] = AUC (0 to 24 hrs) in Wistar rat mesenteric lymph node at 30 mg/kg, po administered as single dose; type: ADME, organism-based; set-up: time < 24 hr, dose 30 mg/kg, route oral; settings: in vivo
Spleen = assay: AUC (0 to 24 hrs) in Wistar rat spleen at 30 mg/kg, po administered as single dose; type: ADME, organism-based; set-up: time < 24 hr, dose 30 mg/kg, route oral; settings: in vivo
Thymus = assay: AUC (0 to 24 hrs) in Wistar rat thymus at 30 mg/kg, po administered as single dose; type: ADME, organism-based; set-up: time < 24 hr, dose 30 mg/kg, route oral; settings: in vivo
Mus musculus [38] = assay: Drug metabolism in po dosed Balb/c mouse assessed as 3-(1H-Indol-3-yl)-4-(2-piperazin-1-yl-quinazolin-4-yl)pyrrole-2,5-dione level relative to parent compound; type: ADME, organism-based; settings: in vivo
Cytochrome P450 3A4 = Cytochrome P450 3A4 (Homo sapiens, UniProt P08684); assay: Inhibition of CYP3A4-catalyzed midazolam 1'-hydroxylation in human liver microsomes; type: ADME, Microsome
Rattus norvegicus [39] = assay: AUC (0 to 24 hrs) in Wistar rat at 30 mg/kg, po administered as single dose; type: ADME, organism-based, Plasma; set-up: time < 24 hr, dose 30 mg/kg, route oral; settings: in vivo

Protein kinase C beta type, sequence (P05771 whole entry): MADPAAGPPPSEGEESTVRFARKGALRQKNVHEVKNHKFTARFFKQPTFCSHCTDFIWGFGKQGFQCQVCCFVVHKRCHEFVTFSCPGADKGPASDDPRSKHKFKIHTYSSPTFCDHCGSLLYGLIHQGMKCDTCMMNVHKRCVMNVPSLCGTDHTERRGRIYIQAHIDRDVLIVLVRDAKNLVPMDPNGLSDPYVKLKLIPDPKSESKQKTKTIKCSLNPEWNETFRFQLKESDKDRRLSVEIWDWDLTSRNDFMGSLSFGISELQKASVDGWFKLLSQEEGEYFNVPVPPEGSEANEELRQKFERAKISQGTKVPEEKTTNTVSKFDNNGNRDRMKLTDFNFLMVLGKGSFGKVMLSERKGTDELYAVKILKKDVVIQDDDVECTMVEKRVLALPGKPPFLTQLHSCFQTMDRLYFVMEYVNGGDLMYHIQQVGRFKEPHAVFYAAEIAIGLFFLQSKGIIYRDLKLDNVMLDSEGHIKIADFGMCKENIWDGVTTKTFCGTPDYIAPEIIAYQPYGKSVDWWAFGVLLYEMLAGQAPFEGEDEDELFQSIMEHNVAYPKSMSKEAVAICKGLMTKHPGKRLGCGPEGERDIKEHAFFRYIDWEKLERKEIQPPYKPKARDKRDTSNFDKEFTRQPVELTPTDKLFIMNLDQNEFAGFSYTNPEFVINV
Protein kinase C theta type, sequence (Q04759 whole entry): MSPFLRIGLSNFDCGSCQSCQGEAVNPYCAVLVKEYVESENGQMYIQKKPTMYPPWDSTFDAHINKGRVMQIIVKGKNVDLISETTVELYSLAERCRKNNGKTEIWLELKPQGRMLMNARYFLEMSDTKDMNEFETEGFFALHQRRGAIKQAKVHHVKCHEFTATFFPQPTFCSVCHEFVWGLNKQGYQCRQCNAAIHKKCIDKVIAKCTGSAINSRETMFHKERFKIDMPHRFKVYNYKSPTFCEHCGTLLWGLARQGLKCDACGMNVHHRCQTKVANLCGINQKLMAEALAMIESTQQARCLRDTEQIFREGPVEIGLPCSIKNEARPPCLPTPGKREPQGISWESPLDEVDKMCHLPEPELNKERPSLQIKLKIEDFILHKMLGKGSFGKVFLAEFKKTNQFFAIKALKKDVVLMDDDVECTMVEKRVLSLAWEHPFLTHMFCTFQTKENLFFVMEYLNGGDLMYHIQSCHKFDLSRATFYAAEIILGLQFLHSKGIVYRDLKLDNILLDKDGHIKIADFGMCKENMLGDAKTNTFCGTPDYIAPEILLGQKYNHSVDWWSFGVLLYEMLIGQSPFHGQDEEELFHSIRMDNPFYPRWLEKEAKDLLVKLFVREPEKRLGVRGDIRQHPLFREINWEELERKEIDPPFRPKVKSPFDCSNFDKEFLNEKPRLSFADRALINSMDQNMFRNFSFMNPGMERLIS
Protein kinase C eta type, sequence (P24723 whole entry): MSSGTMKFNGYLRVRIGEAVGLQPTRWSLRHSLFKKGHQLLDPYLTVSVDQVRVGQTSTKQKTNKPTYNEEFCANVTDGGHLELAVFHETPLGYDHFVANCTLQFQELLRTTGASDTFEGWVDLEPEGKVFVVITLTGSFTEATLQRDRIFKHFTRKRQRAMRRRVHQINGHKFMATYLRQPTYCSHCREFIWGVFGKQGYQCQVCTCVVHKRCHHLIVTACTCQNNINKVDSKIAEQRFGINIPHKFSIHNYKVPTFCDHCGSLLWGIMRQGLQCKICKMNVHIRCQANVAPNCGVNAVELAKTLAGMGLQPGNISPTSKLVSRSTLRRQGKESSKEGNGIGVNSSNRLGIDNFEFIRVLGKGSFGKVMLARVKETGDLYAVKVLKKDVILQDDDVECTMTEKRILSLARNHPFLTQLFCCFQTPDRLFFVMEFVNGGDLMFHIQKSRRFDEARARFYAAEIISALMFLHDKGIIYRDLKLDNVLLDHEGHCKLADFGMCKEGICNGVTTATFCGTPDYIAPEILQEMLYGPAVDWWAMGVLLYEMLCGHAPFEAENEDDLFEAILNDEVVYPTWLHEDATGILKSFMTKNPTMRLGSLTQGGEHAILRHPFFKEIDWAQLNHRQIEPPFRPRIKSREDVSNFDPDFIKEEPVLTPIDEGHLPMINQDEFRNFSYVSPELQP
Protein kinase C delta type, sequence (Q05655 whole entry): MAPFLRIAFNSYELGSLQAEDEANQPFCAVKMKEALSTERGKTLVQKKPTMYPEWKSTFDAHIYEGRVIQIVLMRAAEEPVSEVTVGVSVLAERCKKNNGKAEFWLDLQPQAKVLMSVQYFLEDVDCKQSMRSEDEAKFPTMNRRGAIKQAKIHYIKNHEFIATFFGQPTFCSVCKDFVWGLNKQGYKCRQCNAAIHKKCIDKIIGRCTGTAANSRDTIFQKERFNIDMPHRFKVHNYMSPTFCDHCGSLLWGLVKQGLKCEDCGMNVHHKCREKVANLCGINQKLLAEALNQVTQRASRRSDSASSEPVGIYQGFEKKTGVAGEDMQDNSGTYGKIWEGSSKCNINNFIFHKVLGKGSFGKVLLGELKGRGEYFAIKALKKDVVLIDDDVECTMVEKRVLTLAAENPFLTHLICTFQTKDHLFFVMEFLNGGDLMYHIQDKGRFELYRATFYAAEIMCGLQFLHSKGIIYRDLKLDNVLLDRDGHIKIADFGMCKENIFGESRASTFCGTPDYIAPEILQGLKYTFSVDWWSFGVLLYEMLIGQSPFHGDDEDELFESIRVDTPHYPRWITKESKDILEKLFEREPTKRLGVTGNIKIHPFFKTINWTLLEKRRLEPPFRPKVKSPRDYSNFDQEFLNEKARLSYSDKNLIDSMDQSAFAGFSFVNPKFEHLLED
Cytochrome P450 3A4, sequence (P08684 whole entry): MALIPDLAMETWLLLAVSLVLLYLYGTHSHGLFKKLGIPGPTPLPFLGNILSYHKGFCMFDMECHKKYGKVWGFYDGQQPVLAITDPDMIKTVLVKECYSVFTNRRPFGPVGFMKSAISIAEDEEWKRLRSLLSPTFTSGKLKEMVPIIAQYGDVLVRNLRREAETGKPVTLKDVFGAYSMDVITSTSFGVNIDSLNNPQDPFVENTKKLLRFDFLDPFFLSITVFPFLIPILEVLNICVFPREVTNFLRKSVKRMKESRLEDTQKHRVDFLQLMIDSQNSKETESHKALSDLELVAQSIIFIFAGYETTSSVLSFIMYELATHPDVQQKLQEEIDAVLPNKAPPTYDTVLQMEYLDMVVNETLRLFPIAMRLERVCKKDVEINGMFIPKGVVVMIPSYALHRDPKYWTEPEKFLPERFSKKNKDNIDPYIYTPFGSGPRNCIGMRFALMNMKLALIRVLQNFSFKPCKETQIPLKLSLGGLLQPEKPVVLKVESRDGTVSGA

## CC(C)c1ccc2nc(N3CCN(C)CC3)nc(C3=C(c4c[nH]c5ccccc45)C(=O)NC3=O)c2c1
[1]
  IC50: > 316 nM
[2]
  IC50: > 316 nM
[3]
  IC50: 12 nM
[4]
  IC50: > 316 nM
[5]
  IC50: 283 nM
[6]
  IC50: 71 nM

## CN1CCN(c2nc(C3=C(c4c[nH]c5ccccc45)C(=O)NC3=O)c3cc(C(C)(C)C)ccc3n2)CC1
[1]
  IC50: > 316 nM
[2]
  IC50: > 316 nM
[3]
  IC50: > 316 nM
[4]
  IC50: > 316 nM
[5]
  IC50: > 316 nM
[6]
  IC50: > 316 nM

## CN1CCN(c2nc(C3=C(c4c[nH]c5ccccc45)C(=O)NC3=O)c3ccc(F)cc3n2)CC1
[1]
  IC50: 4.5 nM
[2]
  IC50: 5 nM
[3]
  IC50: 6.3 nM
[4]
  IC50: 15.3 nM
[5]
  IC50: 9 nM
[6]
  IC50: 7.8 nM

## CN1CCN(c2nc(C3=C(c4c[nH]c5ccccc45)C(=O)NC3=O)c3ccc(Cl)cc3n2)CC1
[1]
  IC50: 280 nM
[2]
  IC50: 304 nM
[3]
  IC50: 224 nM
[4]
  IC50: > 316 nM
[5]
  IC50: 192 nM
[6]
  IC50: 316 nM

## CN1CCN(c2cc(C3=C(c4c[nH]c5ccccc45)C(=O)NC3=O)c3ccccc3c2)CC1
[7]
  IC50: 123 nM
[8]
  IC50: 25 nM

## CN1CCN(c2nc(C3=C(c4c[nH]c5ccccc45)C(=O)NC3=O)c3ccccc3n2)CC1 [SOTRASTAURIN]
[7]
  IC50: 150 nM
[8]
  IC50: 37 nM
[9]
  logP: 2.9
[10]
  logD: 2.4
[11]
  solubility: 19 µg/mL (≈ 43.3 µM)
[12]
  solubility: 780 µg/mL (≈ 1780 µM)
[13]
  solubility: 410 µg/mL (≈ 935 µM)
[14]
  solubility: 530 µg/mL (≈ 1210 µM)
[15]
  Papp: 4.5 ×10⁻⁶ cm/s
Mus musculus [16]
  AUC/dose: 371 ng·h/mL
Rattus norvegicus [17]
  AUC/dose: 326 ng·h/mL
Cynomolgus monkey [18]
  AUC/dose: 720 ng·h/mL
[19]
  clearance: 45 mL/min/kg
[20]
  clearance: 23 mL/min/kg
[21]
  Vd: 3.1 L/kg
[22]
  Vd: 5.9 L/kg
[23]
  half-life: 2.5 h
[24]
  half-life: 4.8 h
Mus musculus [25]
  AUC/dose: 72 ng·h/mL
Rattus norvegicus [26]
  AUC/dose: 110 ng·h/mL
Cynomolgus monkey [27]
  AUC/dose: 128 ng·h/mL
[28]
  Tmax: 0.5 h
[29]
  Tmax: 8 h
[30]
  bioavailability: 19%
[31]
  bioavailability: 18%
[32]
  microsomal CLint: 248 µL/min/mg
[33]
  microsomal CLint: 505 µL/min/mg
[34]
  microsomal CLint: 433 µL/min/mg
[35]
  fraction unbound: 0.011
[36]
  fraction unbound: 0.024
[37]
  AUC: 20478 ng·h/g
Spleen
  AUC: 30887 ng·h/g
Thymus
  AUC: 12644 ng·h/g
Mus musculus [38]
  fold change (FC): 2
Cytochrome P450 3A4
  Ki: 2900 nM
Rattus norvegicus [39]
  AUC: 1952 ng·h/g
